The test system of one data set is HCV. Description: IC50 against HCV, RLuc reporter virus, re-infection of naïve Huh7.5 cells. Format: cell-based, Hepatitis C virus. The note with it: serial dilutions 20 to 0.0024 μM. How it is done:
Concerning the SAR studies, 45 C10 derivatives were designed and synthesized, which were tested regarding both their antiviral activity against HCV and DENV, as well as their cytotoxicity. For the activity test, a construct including the viral genome and the reporter gene RLuc was used.
Huh7.5 cells were electroporated with the corresponding RNA, seeded in 96-well plate and treated during 24/48 h with C10 and the different compounds. The supernatant of virus-producing cells was used to re-infect naïve Huh7.5 cells, which were then lysed and their RLuc signal measured.

For a further data set, the system named is Huh7.5 cells. Description: SAR test of C10 derivatives: cytotoxicity (CellTiterGlo). Particulars: 48 h. For orientation: ATP-based viability assays read luminescence as a measure of living cells.
Data set [1] can be described thus: Metabolic stability in mouse liver microsomes. The note with it: male, Balb/c, mouse, microsomes, pH 7.4. How it is done: Microsomal incubations were carried out in 96-well plates in 5 aliquots of […] each (one for each time point). […] Control incubations were performed replacing the NADPH-cofactor system with PBS. […] Incubations were performed in duplicates. Five time points over 40 minutes had been analyzed. The reactions were stopped by adding 12 volumes of 90% acetonitrile-water to incubation aliquots, followed by protein sedimentation by centrifuging at 5500 rpm for 3 minutes. […]. Supernatants were analyzed using the HPLC system coupled with tandem mass spectrometer.
The elimination constant (kel), half-life (t½) and intrinsic clearance (Clint) were determined in plot of In(AUC) versus time, using linear regression analysis (In order to indicate the quality of the linear regression analysis, the R (correlation coefficient) values are provided. In some cases, the last time point is excluded from the calculations to ensure acceptable logarithmic linearity of decay): […]
For orientation: Microsomes from liver hold many membrane-bound enzymes, among them those of drug oxidation.

The target of the next data set is T1, DENV capsid protein (Dengue virus type 2, UniProt P29990).
T1 construct: recombinant DENV capsid protein; made in house; host or cells: E. coli
Kind of data set: Crosslinking of recombinant DENV capsid protein (Western blot). It is filed as biochemical. An excerpt:
(§1) DSS was included as a positive control.
(In general: Immunoblotting shows a protein as a band on a membrane.)

For data set [2], the system named is VP1 polyomavirus, LP1 HPV16, p24 HIV, BSA, GFP. Description: Specificity in the cross-linking assay: other capsid and non-related proteins. Format: biochemical. The procedure:
as §1
To study the specificity of C10, capsid proteins of other viruses (VP1 polyomavirus, LP1 HPV16, and p24 HIV) as well as non-related proteins (BSA, GFP), were incubated in the so-called cross-linking assay, with DSS or C10.

Data set [3] has as its system hematopoietic stem cell formation. Description: Effect on zebrafish hematopoietic stem cell formation (in situ runx-1+c-myb). It is filed as in vivo. Particulars: 36 hpf. How it is done: Zebrafish embryos were exposed 20-30 min after fertilization to differing concentrations of the compounds C10 and D1 (5 μM; 15 μM; 25 μM) or to medium containing the corresponding solvent (DMSO) concentration. Therefore, 3-5 embryos were sorted into each of three wells of a 96 well plate containing 200 μl of medium. For phenotype analysis, triplicates were imaged after 6-7 h post fertilization (hpf) at approximately shield stage, after 24 hpf and after 48 hpf. Dead +unfertilized embryos were removed. For imaging at 24 hpf +48 hpf; embryos were anesthetized using MESAB. (A) Diagramm showing the percentage of embryos at each time point either developing normal (blue color) or with the indicated phenotype. (B) representative images of embryos treated with the indicated compounds, or controls at the respective time points. (C) To additionally elucidate the influence on hematopoietic stem cell formation, approx. half of the embryos were sampled at 36 hpf and an in situ staining for runx-1+c-myb was performed. Shown are representative images of hematopoietic stem cell formation with the treatment indicated.
Embryos were exposed 20-30 min after fertilization to differing concentrations of the compounds C10 and D1 (5 μM; 15 μM; 25 μM) or to medium containing the corresponding solvent (DMSO) concentration. […]

The next data set is described as follows: in vitro. Particulars: for % Remain. Mean: mouse plasma, 1 μM, 37° C. The procedure:
Plasma stability is defined as the percentage of parent compound remaining in plasma over the time.
Incubations were carried out in 5 aliquots of 70 μL each (one for each time point), in duplicates. Test compounds (1 μM, final DMSO concentration 1%) were incubated at 37° C. with shaking at 100 rpm. Five time points over 120 minutes have been analyzed. The reactions were stopped by adding 420 μL of acetonitrile-water mixture (90:10) with subsequent plasma proteins sedimentation by centrifuging at 5500 rpm for 5 minutes. Supernatants were analyzed by the HPLC system coupled with tandem mass spectrometer. The percentage of the test compounds remaining after incubation in plasma and their half-lives (T1/2) were calculated.

The source of these data is patent publication US12527773B2, “Flavi-block: a pan-flavivirus inhibitor” (Baden-Württemberg Stiftung GmbH, priority 2020, dated 2026).

What is called half-life is the time in which the quantity being followed falls by half. The low end stands for rapid decline, the high end for slow decline.

Counter-ions that a name gives are not always drawn.

Regarding `CC(=O)Nc1ccc2c(c1)S/C(=C\C=C\c1sc3cc(NC(C)=O)ccc3[n+]1C)N2C` [compound 45, 6-acetamido-2-((1E,3E)-3-(6-acetamido-3-methylbenzo[d]thiazol-2(3H)-ylidene)prop-1-en-1-yl)-3-methylbenzo[d]thiazol-3-ium iodide], in the data set on HCV, the “potency relative to C10 (IC50 against HCV)” value is 2.5 times. In addition, in the data set with Huh7.5 cells, the cytotoxicity result is reported as “not cytotoxic at the concentrations in which they are antiviral”.
As to `CC(C)NCC(O)COc1cccc2ccccc12` (racemic) [Propranolol, (+,−) Propranolol hydrochloride, reference compound], the half-life at 2 mM in data set [1] came to 53.9 min.
As for `O=C(CCCCCCC(=O)ON1C(=O)CCC1=O)ON1C(=O)CCC1=O` [DSS, disuccinimidyl suberate, reference compound], the “effect on oligomerization state of DENV capsid protein” value at DENV capsid protein is “stabilizes mainly the dimer”. In data set [2], the “crosslinking effect on other capsid and non-related proteins” value was “clear effect of monomer consumption and dimer formation”.
For the compound `CCN1/C(=C/C(C)=C/c2sc3cc(NC(C)=O)ccc3[n+]2CC)Sc2cc(NC(C)=O)ccc21` [compound 46, 6-acetamido-2-((1E,3E)-3-(6-acetamido-3-ethylbenzo[d]thiazol-2(3H)-ylidene)-2-methylprop-1-en-1-yl)-3-ethylbenzo[d]thiazol-3-ium iodide], the “potency relative to C10 (IC50 against HCV)” value with HCV worked out at 1.5 times. Also, in the data set on Huh7.5 cells, the cytotoxicity result is given as “not cytotoxic at the concentrations in which they are antiviral”.
As for `CCN1/C(=C/C=C/c2sc3cc(N)ccc3[n+]2CC)Sc2cc(N)ccc21.[I-]` [D1, 6-amino-2-[(1E)-3-[(2Z)-6-amino-3-ethyl-2,3-dihydro-1,3-benzothiazol-2-ylidene]prop-1-en-1-yl]-3-ethyl-1,3-benzothiazol-3-ium iodide], the “hematopoietic stem cell formation” value in data set [3] is “no difference to the WT embryos”.
With `CC(C)[N+](C)(CCOC(=O)C1c2ccccc2Oc2ccccc21)C(C)C` [Propantheline, Propantheline bromide, reference compound], the “% Remain. Mean” value in “in vitro” (0 min) is on record as 100%; in the data set “in vitro” (20 min), 66%; in the data set “in vitro” (40 min), 29%; in the data set “in vitro” (60 min) it was 13%; in “in vitro” (120 min), 2%. In the data set “in vitro” (mouse, plasma), this compound came in with a half-life at 1 μM of 20 min.
